Experimental findings from patent US11072632B2, “Inhibitors of 17β-HSD1, 17β-HSD3 and 17β-HSD10” (UNIVERSITÉ LAVAL, priority 2011, dated 2021) are described below.

The subject of test [1] is ovariectomized (OVX) mice. In words: In vivo estrogenic activity (uterotrophic assay) in OVX mice. Conditions: for increase in uterine weight vs. control group: 100 μg/kg s.c. BID, 7 days. Details: species or system mouse. On the procedure:
The mice were fed rodent chow and tap water ad libitum. The animals were ovariectomized (OVX) under isoflurane-anaesthesia via bilateral flank incisions and randomly assigned to groups (5 animals by group). Mice in the OVX control group received the vehicle alone (8% ethanol-0.4% methylcellulose) during the 7-day period. The possible estrogenic activity of tested compounds was evaluated after their administration by subcutaneous (s.c.) injection [1, 10 and 100 μg/kg, s.c., twice daily (BID)] as suspension in 8% ethanol-0.4% methylcellulose to OVX female mice for 7 days. On day 8, the mice were sacrificed by cervical dislocation. The uteri and vagina were rapidly removed, freed from fat and connective tissue and weighed. Results are the means±SEM of 5 mice per group.

For test [2], the system named is androgen-sensitive (AR+) Shionogi cells. The experiment in a line: Proliferative (androgenic) activity on androgen-sensitive Shionogi cells. In kind it is cell-based. Conditions: for cell proliferation, % of basal: basal (control) 100%. The protocol:
The proliferative (androgenic) activity was determined using androgen-sensitive Shionogi cells following a known literature procedure.^54 Inhibitors and reference compounds were tested at two concentrations (0.1 and 1.0 μM). The androgenicity was reported as % cell proliferation (versus the control). The basal cell proliferation (control) was fixed at 100%.

The target of test [3] is T1, 17β-HSD3 (Homo sapiens, UniProt P37058).
T1 construct: expressed in transfected cells; host or cells: HEK-293 (homogenate)
T1 sequence (P37058 1-310): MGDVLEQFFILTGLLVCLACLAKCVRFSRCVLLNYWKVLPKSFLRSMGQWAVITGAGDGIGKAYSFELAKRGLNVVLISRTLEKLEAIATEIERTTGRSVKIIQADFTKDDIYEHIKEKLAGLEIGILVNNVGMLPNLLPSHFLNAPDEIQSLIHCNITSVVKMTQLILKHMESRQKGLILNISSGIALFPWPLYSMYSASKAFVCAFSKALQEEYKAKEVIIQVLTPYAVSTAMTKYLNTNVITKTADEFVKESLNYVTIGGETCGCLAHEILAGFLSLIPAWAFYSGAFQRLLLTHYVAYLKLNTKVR
The experiment in a line: Inhibition of 17β-HSD3 in homogenated HEK-293 cells. It counts as biochemical.

Test [4] has as its target T1, 17β-HSD3. In words: Inhibition of 17β-HSD3 in intact HEK-293 cells. It counts as cell-based. Conditions: HEK293, 1 h.
The subject of test [5] is MCF-7 cells. In words: Estrogenic activity in MCF-7 cells. As to Estrogenicity (0.1 μM): key: — = no; + = weak; ++ = medium to strong. As to Estrogenicity (1.0 μM): key: — = no; + = weak; ++ = medium to strong. In kind it is cell-based, human. Conditions: 7 days; for Estrogenicity (0.1 μM) / Estrogenicity (1.0 μM): growth of estrogen-starved MCF-7 cells; for estrogenic activity on MCF-7 cells (FIG. 1): concentrations up to 5 μM. The protocol:
MCF-7 cells were seeded with medium supplemented with insulin (50 ng/mL) and 5% dextran-coated charcoal treated FBS rather than 10% FBS to remove remaining hormones. Aliquots (100 μL) of the cell suspension were seeded in 96-well plates (3000 cells/well). […] Cells were grown either in the absence or presence of the compounds over a period of 7 days. Quantification of cell growth was determined by using the CellTiter 96®Aqueous Solution Cell Proliferation Assay (Promega, Nepean, ON, Canada) following the manufacturer's instructions. To determine the proliferative (estrogenic) activity, the cells were grown in the absence (control fixed as 100%) or presence of the tested compounds at the indicated concentrations.

Test [6] deals with T2, 17β-HSD1 (Homo sapiens, UniProt P14061).
T2 construct: endogenous in cells; host or cells: T-47D
T2 sequence (P14061 1-328): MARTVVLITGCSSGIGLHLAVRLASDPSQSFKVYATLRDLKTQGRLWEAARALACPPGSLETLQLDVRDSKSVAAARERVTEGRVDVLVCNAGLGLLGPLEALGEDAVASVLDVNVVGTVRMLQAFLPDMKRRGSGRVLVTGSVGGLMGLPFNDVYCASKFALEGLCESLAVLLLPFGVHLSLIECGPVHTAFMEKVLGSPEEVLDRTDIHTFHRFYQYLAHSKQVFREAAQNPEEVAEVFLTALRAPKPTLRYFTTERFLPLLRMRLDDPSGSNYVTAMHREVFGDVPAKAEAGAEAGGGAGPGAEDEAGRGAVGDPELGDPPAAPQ
In words: Inhibition of 17β-HSD1 in T-47D intact cells (E1 into E2). It counts as cell-based. Conditions: T47D; for inhibition at 1 µM: read-out: Inhibition (1 μM); for inhibition at 0.01 µM: read-out: Inhibition % (0.01 μM). On the procedure: T-47D cells were seeded in a 24-well plate (3000 cells/well) in medium supplemented with insulin (50 ng/mL) and 5% dextran-coated charcoal treated FBS rather than 10% FBS to remove remaining hormones. […] Each inhibitor was assessed in triplicate. After incubation, the culture medium was removed and labelled steroids (E1 and E2) extracted with 1 mL of diethyl ether. The organic phases were separated and evaporated to dryness using nitrogen. Residues were dissolved in dichloromethane and dropped on silica gel thin layer chromatography plates (EMD Chemicals Inc., Gibbstown, N.J., USA) and eluted with a toluene/acetone (4:1) solvent system. Substrate [^14C]-E1 and metabolite [^14C]-E2 were identified by comparison with reference steroids and quantified using a Storm 860 system (Molecular Dynamics, Sunnyvale, Calif., USA).
T-47D cells were seeded in a 24-well plate (3000 cells/well) in 990 μL of medium supplemented with insulin (50 ng/mL) and 5% dextran-coated charcoal-treated FBS, which was used rather than untreated 10% FBS, to remove the remaining steroid hormones. […] The final concentration of ethanol in the well was adjusted to 0.1%. Additionally, 5 μL of a solution of [^14C]-estrone (American Radiolabeled Chemicals, Inc., St. Louis, Mo., USA) was added to obtain a final concentration of 60 nM. […] After incubation, the culture medium was removed and labeled steroids (E1 and E2) were extracted with 1 mL of diethyl ether. The organic phases were evaporated to dryness with nitrogen. Residues were dissolved in dichloromethane and dropped on silica gel thin layer chromatography plates (EMD Chemicals Inc., Gibbstown, N.J., USA) and eluted with toluene/acetone (4:1) as solvent system. Substrate [^14C]-E1 and metabolite [^14C]-E2 were identified by comparison with reference steroids (E1 and E2) and quantified using the Storm 860 system (Molecular Dynamics, Sunnyvale, Calif., USA).

Where [7] appears, read: Table 2 (17β-HSD1), [14C]-E1 60 nM, T-47D intact cells, 0.1 μM, read-out: Inhibition (0.1 μM).
[8] abbreviates: Table 2 (17β-HSD1), [14C]-E1 60 nM, T-47D intact cells, 1 μM.
The mark [9] stands for this setting: [14C]-E1 (60 nM) into [14C]-E2, T-47D intact cells.
Setting [10] is: [14C]-E1 (60 nM) into [14C]-E2, T-47D intact cells, 0.1 μM, read-out: Inhibition % (0.1 μM).

Like-named read-outs stand apart in the source and are kept apart here.

`C[C@]12CC[C@@H]3c4ccc(O)cc4CC[C@H]3[C@@H]1CC[C@H]2O` [17α-E2 (2), 17α-estradiol]: the “increase in uterine weight vs. control group” value in test [1] was 3.6 fold.
The same measure, in the same setting: next, `C[C@@]12CC[C@@H]3c4ccc(O)cc4CC[C@H]3[C@@H]1CC[C@H]2O` [18-epi-17α-E2 (4), (13α,17α)-estra-1(10),2,4-triene-3,17-diol]: 2.6 fold.
For the molecule `C[C@@]12CC[C@@H]3c4ccc(O)cc4CC[C@H]3[C@@H]1CC[C@@H]2O` [18-epi-17β-E2 (3), (13α,17β)-estra-1(10),2,4-triene-3,17-diol], the “increase in uterine weight vs. control group” value in test [1] was 1.5 fold. In addition, the uterotrophic activity entry in test [1] (uterus and vagina, OVX mice) is on record as “no significant uterotrophic activity”.
Turning to `C[C@]12CC[C@](O)(Cc3ccccc3)C[C@@H]1CC[C@@H]1[C@@H]2CC[C@]2(C)C(=O)CC[C@@H]12` [CS-213, 3β-benzyl-3α-hydroxy-5α-androstan-17-one, reference compound], the “cell proliferation, % of basal” value in test [2] (0.1 μM) amounted to 225%; in test [2] (1 μM) it was 396%.
For `CCN(Cc1ccccc1)C[C@@]1(O)CC[C@@]2(C)[C@@H](CC[C@@H]3[C@@H]2CC[C@]2(C)C(=O)CC[C@@H]32)C1` [Compound 7a, (3α,5α)-3{[benzyl(ethyl)amino]methyl}3-hydroxyandrostan-17-one], the inhibition at 0.1 µM in test [3] (Table 2 (17β-HSD3), read-out: Homo (%) (0.1 μM)) is 85%; in test [4] (Table 2 (17β-HSD3), read-out: Intact cells (%) (0.1 μM)), 86%. Moreover, the inhibition at 1 µM in test [3] (Table 2 (17β-HSD3), 1 μM, read-out: Homo (%) (1 μM)) came out at 90%; in test [4] (Table 2 (17β-HSD3), 1 μM, read-out: Intact cells (%) (1 μM)) it was 94%. The inhibition at 0.01 µM in test [3] (Table 2 (17β-HSD3), [14C]-Δ4-dione 50 nM into [14C]-T, read-out: Homo (%) (0.01 μM)) stood at 42%. Moreover, the “cell proliferation, % of basal” value in test [2] (0.1 μM) amounted to 292%; in test [2] (1 μM) it was 314%.
For `C[C@]12CC[C@@]3(C[C@@H]1CC[C@@H]1[C@@H]2CC[C@]2(C)C(=O)CC[C@@H]12)CN(Cc1ccccc1)C(=O)O3` [Compound 17a, (3R,5S,8R,9S,10S,13S,14S)-3′-benzyl-10,13-dimethyltetradecahydro-2′H spiro[cyclopenta[α]phenanthrene-3,5′-[1,3]oxazolidine]-2′,17(2H)-dione], in test [3] (read-out: Homo (%) (0.01 μM), Table 4), the inhibition at 0.01 µM amounted to 21%. Besides, the inhibition at 0.1 µM in test [3] (read-out: Homo (%) (0.1 μM), Table 4) was 86%; in test [4] (read-out: Intact cells (%) (0.1 μM), Table 4) it was 44%. In addition, the inhibition at 1 µM in test [3] (read-out: Homo (%) (1.0 μM), Table 4, 1.0 μM) came out at 93%. In addition, the “proliferative (androgenic) effect” value in test [2] (0.1 and 1 μM) is “did not stimulate the proliferation of AR^+ cells”.
With `C[C@]12CC[C@@H]3c4ccc(B(O)O)cc4CC[C@H]3[C@@H]1C[C@H](Cc1cccc(C(N)=O)c1)[C@@H]2O` [Compound 46, [(16β,17β)-16-(3-carbamoylbenzyl)-17-hydroxyestra-1(10),2,4-trien-3-yl]boronic acid], in test [5], the “Estrogenicity (0.1 μM)” value is “++” and the “Estrogenicity (1.0 μM)” value is given as “++”. For the same molecule, the inhibition at 0.1 µM in test [6] (setting [7]) was determined as 39%.
With `C[C@]12CC[C@@H]3c4ccc(N)cc4CC[C@H]3[C@@H]1C[C@H](Cc1cccc(C(N)=O)c1)[C@@H]2O` [Compound 50, 3-{[(16β,17β)-3-amino-17-hydroxyestra-1,3,5(10)-trien-16-yl]methyl}benzamide], the “Estrogenicity (1.0 μM)” value in test [5] is on record as “+”. In addition, in test [6] (read-out: Inhibition (0.1 μM)), the inhibition at 0.1 µM amounted to 35%. Besides, the inhibition at 1 µM in test [6] stood at 43%.
Take `C[C@]12CC[C@@H]3c4ccc(F)cc4CC[C@H]3[C@@H]1C[C@H](Cc1cccc(C(N)=O)c1)[C@@H]2O` [Compound 57, 3-{[(16β,17β)-3-fluoro-17-hydroxyestra-1(10),2,4-trien-16-yl]methyl}benzamide]: the “Estrogenicity (1.0 μM)” value in test [5] was “+”. The inhibition at 0.1 µM in test [6] (read-out: Inhibition (0.1 μM)) was found to be 48%. For the same molecule, in test [6], the inhibition at 1 µM was 50%.
As to `C[C@]12CC[C@@H]3c4ccc(C(N)=O)cc4CC[C@H]3[C@@H]1C[C@H](Cc1cccc(C(N)=O)c1)[C@@H]2O` [Compound 61, (16β,17β)-16-(3-carbamoylbenzyl)-17-hydroxyestra-1,3,5(10)-triene-3-carboxamide], the “Estrogenicity (1.0 μM)” value in test [5] is “++”. Moreover, the inhibition at 0.1 µM in test [6] (setting [7]) was determined as 3%. In addition, in test [6] (setting [8]), the inhibition at 1 µM worked out at 23%.
For the molecule `C[C@]12CC[C@@H]3c4ccc(CO)cc4CC[C@H]3[C@@H]1C[C@H](Cc1cccc(C(N)=O)c1)[C@@H]2O` [II, 3-{[(16β,17β)-17-hydroxy-3-(hydroxymethyl)estra-1,3,5(10)-trien-16-yl]methyl}benzamide], the “estrogenic activity on MCF-7 cells (FIG. 1)” value in test [5] is listed as “significant estrogenic activity”. For the same molecule, in test [5], the “Estrogenicity (1.0 μM)” value is recorded as “+”. For the same molecule, the inhibition at 0.1 µM in test [6] (setting [7]) came out at 56%; in test [6] (setting [10]) it was 37%. Besides, the inhibition at 1 µM in test [6] (setting [8]) is 73%. For the same molecule, the inhibition at 0.01 µM in test [6] (setting [9]) is 14%.
On to `C[C@]12CC[C@@H]3c4ccc(CCO)cc4CC[C@H]3[C@@H]1CC(Cc1cccc(C(N)=O)c1)[C@@H]2O` (stereo partly drawn) [IV, 3-{[(17β)-17-hydroxy-3-(2-hydroxyethyl)estra-1(10),2,4-trien-16-yl]methyl}benzamide], for which, in test [5], the “estrogenic activity on MCF-7 cells (FIG. 1)” value is on record as “completely removed any estrogenic activity”, the “Estrogenicity (0.1 μM)” value is listed as “+” and the “Estrogenicity (1.0 μM)” value is recorded as “++”. The inhibition at 0.1 µM in test [6] (setting [7]) turned out to be 19%. Also, the inhibition at 1 µM in test [6] (setting [8]) stood at 57%. Also, the inhibition at 0.01 µM in test [6] (setting [9]) amounted to 7%. The inhibition at 0.1 µM in test [6] (setting [10]) worked out at 17%.
